Test results published in patent US5455222A, “1-substituted-5-thiomethylthiocyanato-1H-tetrazoles, compositions containing them and their use as antimicrobial and marine antifouling agents” (The Dow Chemical Company, priority 1994, dated 1995).
Values after ≈ are worked out from the molar mass of the structure shown.

Legend:
[1] = system: Candida albicans (Ca); assay: Minimum inhibitory concentration (MIC), yeast/fungi in malt yeast agar; assay type: cell-based, Candida albicans ATCC 10231; details: 30° C., 48 hours for yeast
Procedure: (§1) The minimum inhibitory concentration (MIC) for the compounds listed in Table I is determined for 9 bacteria, using nutrient agar, and 7 yeast and fungi, using malt yeast agar. A one percent solution of the test compound is prepared in a mixture of acetone and water.
(§2) Malt yeast agar is prepared by adding 3 g yeast extract and 45 g malt agar per liter of deionized water. The specific agar is dispensed in 30 mL aliquots into 25×200 mm test tubes, capped and autoclaved for 15 minutes at 115° C.
(§3) The test tubes containing the agar are cooled in a water bath until the temperature of the agar is 48° C. Then, an appropriate amount of the one percent solution of the test compound is added (except in the controls where no compound is added) to the respective test tubes so that the final concentrations are 500, 250, 100, 50, 25, 10, 5, 2.5, 1.0 and zero parts per million of the test compound in the agar, thus having a known concentration of test compound dispersed therein. The contents of the test tubes are then transferred to respective petri plates. After drying for 24 hours, the petri plates containing nutrient agar are inoculated with bacteria and those containing malt yeast agar are inoculated with yeast and fungi.
(§4) The inoculation with the yeast and fungi is accomplished as follows. Cultures of yeast and fungi are incubated for seven days on malt yeast agar at 30° C. These cultures are used to prepare suspensions by the following procedure. A suspension of each organism is prepared by adding 10 mL of sterile saline and 10 microliters of octylphenoxy polyethoxy ethanol to the agar slant of yeast or fungi. The sterile saline/octylphenoxy polyethoxy ethanol solution is then agitated with a sterile swab to suspend the microorganism grown on the slant. Each resulting suspension is diluted into sterile saline (1 part suspension to 9 parts sterile saline). Aliquots of these dilutions are placed in individual wells of Steer's Replicator and petri plates inoculated as previously described. The petri plates are incubated at 30° C. and read after 48 hours for yeast and 72 hours for fungi.
(§5) Table II lists the bacteria, yeast and fungi used in the MIC test described above along with their respective American Type Culture Collection (ATCC) identification numbers.
(§6) In Tables III and IV, the MIC values of the compounds described in Table I as compared to the MIC of a standard commercial preservative (with 1-(3-chloroallyl)-3,5,7-triaza-1-azoniaadamantane chloride as the active agent and referred to in Tables III and IV as "STANDARD I") are set forth for the bacteria organisms and yeast/fungi organisms which are listed in Table II.

[2] = system: Klebsiella pneumoniae (Kp); assay: Minimum inhibitory concentration (MIC), bacteria in nutrient agar; assay type: cell-based, Klebsiella pneumoniae ATCC 8308; details: 48 hours
Procedure: as §1
(§7) Nutrient agar is prepared at pH 6.8, representing a neutral medium, and at pH 8.2, representing an alkaline medium. The nutrient agars are prepared by adding 23 g of nutrient agar to one liter of deionized water. In addition, the alkaline medium is prepared by adjusting a 0.04M solution of N-[tris-(hydroxymethyl)methyl]glycine buffered deionized water with concentrated sodium hydroxide to a pH of 8.5.
as §3
(§8) The inoculation with bacteria is accomplished by using the following procedure. Twenty-four hour-cultures of each of the bacteria are prepared by incubating the respective bacteria in tubes containing nutrient broth for 24 hours at 30° C. in a shaker. Dilutions of each of the 24 hour-cultures are made so that nine separate suspensions (one for each of the nine test bacteria) are made, each containing 10^8 colony forming units (CFU) per mL of suspension of a particular bacteria. Aliquots of 0.3 mL of each of the bacterial suspensions are used to fill the individual wells of Steer's Replicator. For each microbial suspension, 0.3 mL was used to fill three wells (i.e., three wells of 0.3 mL each) so that for the nine different bacteria, 27 wells are filled. The Steer's Replicator is then used to inoculate both the neutral and alkaline pH nutrient agar petri plates.
(§9) The inoculated petri plates are incubated at 30° C. for 48 hours and then read to determine if the test compound which is incorporated into the agar prevented growth of the respective bacteria.
as §5, §6

[3] = system: Aspergillus niger (An); assay: Minimum inhibitory concentration (MIC), yeast/fungi in malt yeast agar; assay type: cell-based, Aspergillus niger ATCC 16404; details: 30° C., 72 hours for fungi
Procedure: as §1, §2, §3, §4, §5, §6

[4] = system: Penicillium chrysogenum (Pc); assay: as above; assay type: cell-based, Penicillium chrysogenum ATCC 9480; details: 30° C., 72 hours for fungi
Procedure: as §1, §2, §3, §4, §5, §6

[5] = system: Staphylococcus aureus (Sa); assay: Minimum inhibitory concentration (MIC), bacteria in nutrient agar; assay type: cell-based, Staphylococcus aureus ATCC 6538; details: 48 hours
Procedure: as §1, §7, §3, §8, §9, §5, §6

[6] = system: Enterobacter aerogenes (Ea); assay: as above; assay type: cell-based, Enterobacter aerogenes ATCC 13048; details: Klebsiella aerogenes, 48 hours
Procedure: as §1, §7, §3, §8, §9, §5, §6

[7] = system: Escherichia coli (Ec); assay: as above; assay type: cell-based, Escherichia coli ATCC 11229; details: 48 hours
Procedure: as §1, §7, §3, §8, §9, §5, §6

[8] = system: Aureobasidium pullulan (Ap); assay: Minimum inhibitory concentration (MIC), yeast/fungi in malt yeast agar; assay type: cell-based, Aureobasidium pullulan ATCC 16622; details: 30° C., read after 48 hours for yeast and 72 hours for fungi
Procedure: as §1, §2, §3, §4, §5, §6

[9] = system: Trichoderma viride (Tv); assay: as above; assay type: cell-based, Trichoderma viride ATCC 8678; details: 30° C., 72 hours for fungi
Procedure: as §1, §2, §3, §4, §5, §6

[10] = system: Pseudomonas aeruginosa (Pa); assay: Minimum inhibitory concentration (MIC), bacteria in nutrient agar; assay type: cell-based, Pseudomonas aeruginosa ATCC 10145; details: 48 hours
Procedure: as §1, §7, §3, §8, §9, §5, §6

[11] = system: Proteus vulgaris (Pv); assay: as above; assay type: cell-based, Proteus vulgaris ATCC 881; details: 48 hours
Procedure: as §1, §7, §3, §8, §9, §5, §6

[12] = system: Bacillus subtilis (Bs); assay: as above; assay type: cell-based, Bacillus subtilis ATCC 8473; details: 48 hours
Procedure: as §1, §7, §3, §8, §9, §5, §6

[13] = system: Saccharomyces cerevisiae (Sc); assay: Minimum inhibitory concentration (MIC), yeast/fungi in malt yeast agar; assay type: cell-based, Saccharomyces cerevisiae ATCC 4105; details: 30° C., 48 hours for yeast
Procedure: as §1, §2, §3, §4, §5, §6

[14] = system: Pseudomonas aeruginosa (PRD-10); assay: Minimum inhibitory concentration (MIC), bacteria in nutrient agar; assay type: cell-based, Pseudomonas aeruginosa ATCC 15442; details: 48 hours
Procedure: as §1, §7, §3, §8, §9, §5, §6

[15] = system: Salmonella choleraesuis (Sc); assay: as above; assay type: cell-based, Salmonella choleraesuis ATCC 10708; details: Salmonella enterica, 48 hours
Procedure: as §1, §7, §3, §8, §9, §5, §6

SMILES	MIC [1]	MIC ([2]; nutrient agar pH 6.8, 30° C.)	MIC ([2]; nutrient agar pH 8.2, 30° C.)	MIC [3]	MIC [4]	MIC ([5]; nutrient agar pH 6.8, 30° C.)	MIC ([5]; nutrient agar pH 8.2, 30° C.)	MIC ([6]; nutrient agar pH 6.8, 30° C.)	MIC ([6]; nutrient agar pH 8.2, 30° C.)	MIC ([7]; nutrient agar pH 6.8, 30° C.)	MIC ([7]; nutrient agar pH 8.2, 30° C.)	MIC [8]	MIC [9]	MIC ([10]; nutrient agar pH 8.2, 30° C.)	MIC ([11]; nutrient agar pH 6.8, 30° C.)	MIC ([11]; nutrient agar pH 8.2, 30° C.)	MIC ([12]; nutrient agar pH 6.8, 30° C.)	MIC ([12]; nutrient agar pH 8.2, 30° C.)	MIC [13]	MIC ([14]; nutrient agar pH 6.8, 30° C.)	further results
N#CSCSc1nnnn1-c1ccc(Cl)cc1 [III, 1-(4-Chlorophenyl)-5-thiomethylthiocyanato-1H-tetrazole]	5 µg/mL (≈ 17.6 µM)	25 µg/mL (≈ 88.1 µM)	50 µg/mL (≈ 176 µM)	< 1 µg/mL	< 1 µg/mL	25 µg/mL (≈ 88.1 µM)	50 µg/mL (≈ 176 µM)	25 µg/mL (≈ 88.1 µM)	250 µg/mL (≈ 881 µM)	25 µg/mL (≈ 88.1 µM)	250 µg/mL (≈ 881 µM)	2.5 µg/mL (≈ 8.81 µM)	5 µg/mL (≈ 17.6 µM)	25 µg/mL (≈ 88.1 µM)	25 µg/mL (≈ 88.1 µM)	100 µg/mL (≈ 352 µM)	< 10 µg/mL	50 µg/mL (≈ 176 µM)	2.5 µg/mL (≈ 8.81 µM)	25 µg/mL (≈ 88.1 µM)	MIC ([14]; nutrient agar pH 8.2, 30° C.): 50 µg/mL (≈ 176 µM); MIC ([15]; nutrient agar pH 6.8, 30° C.): 25 µg/mL (≈ 88.1 µM); MIC ([15]; nutrient agar pH 8.2, 30° C.): 100 µg/mL (≈ 352 µM)
N#CSCSc1nnnn1C1CCCCC1 [X, 1-(Cyclohexyl)-5-thiomethylthiocyanato-1H-tetrazole]	50 µg/mL (≈ 196 µM)	250 µg/mL (≈ 979 µM)	100 µg/mL (≈ 392 µM)	5 µg/mL (≈ 19.6 µM)	< 1 µg/mL	25 µg/mL (≈ 97.9 µM)	50 µg/mL (≈ 196 µM)	500 µg/mL (≈ 1960 µM)	500 µg/mL (≈ 1960 µM)	250 µg/mL (≈ 979 µM)	500 µg/mL (≈ 1960 µM)	< 1 µg/mL	50 µg/mL (≈ 196 µM)	250 µg/mL (≈ 979 µM)	250 µg/mL (≈ 979 µM)	250 µg/mL (≈ 979 µM)	< 10 µg/mL	25 µg/mL (≈ 97.9 µM)	5 µg/mL (≈ 19.6 µM)	500 µg/mL (≈ 1960 µM)	MIC ([10]; nutrient agar pH 6.8, 30° C.): 250 µg/mL (≈ 979 µM); MIC ([14]; nutrient agar pH 8.2, 30° C.): 500 µg/mL (≈ 1960 µM); MIC ([15]; nutrient agar pH 6.8, 30° C.): 250 µg/mL (≈ 979 µM); MIC ([15]; nutrient agar pH 8.2, 30° C.): 500 µg/mL (≈ 1960 µM)
N#CSCSc1nnnn1-c1cccc(Cl)c1 [II, 1-(3-Chlorophenyl)-5-thiomethylthiocyanato-1H-tetrazole]	< 10 µg/mL	250 µg/mL (≈ 881 µM)	250 µg/mL (≈ 881 µM)	< 10 µg/mL	< 10 µg/mL	250 µg/mL (≈ 881 µM)	100 µg/mL (≈ 352 µM)	500 µg/mL (≈ 1760 µM)	500 µg/mL (≈ 1760 µM)	500 µg/mL (≈ 1760 µM)	500 µg/mL (≈ 1760 µM)	< 10 µg/mL	25 µg/mL (≈ 88.1 µM)	500 µg/mL (≈ 1760 µM)	100 µg/mL (≈ 352 µM)	250 µg/mL (≈ 881 µM)	100 µg/mL (≈ 352 µM)	250 µg/mL (≈ 881 µM)	< 10 µg/mL	500 µg/mL (≈ 1760 µM)	MIC ([14]; nutrient agar pH 8.2, 30° C.): 250 µg/mL (≈ 881 µM); MIC ([15]; nutrient agar pH 6.8, 30° C.): 500 µg/mL (≈ 1760 µM); MIC ([15]; nutrient agar pH 8.2, 30° C.): 500 µg/mL (≈ 1760 µM)
Cc1cccc(-n2nnnc2SCSC#N)c1 [VI, 1-(3-Methylphenyl)-5-thiomethylthiocyanato-1H-tetrazole]	5 µg/mL (≈ 19 µM)	250 µg/mL (≈ 949 µM)	100 µg/mL (≈ 380 µM)	5 µg/mL (≈ 19 µM)	< 1 µg/mL	25 µg/mL (≈ 94.9 µM)	50 µg/mL (≈ 190 µM)	500 µg/mL (≈ 1900 µM)	500 µg/mL (≈ 1900 µM)	500 µg/mL (≈ 1900 µM)	500 µg/mL (≈ 1900 µM)	< 1 µg/mL	25 µg/mL (≈ 94.9 µM)	250 µg/mL (≈ 949 µM)	100 µg/mL (≈ 380 µM)	100 µg/mL (≈ 380 µM)	< 10 µg/mL	25 µg/mL (≈ 94.9 µM)	< 1 µg/mL	500 µg/mL (≈ 1900 µM)	MIC ([14]; nutrient agar pH 8.2, 30° C.): 500 µg/mL (≈ 1900 µM); MIC ([15]; nutrient agar pH 6.8, 30° C.): 500 µg/mL (≈ 1900 µM); MIC ([15]; nutrient agar pH 8.2, 30° C.): 500 µg/mL (≈ 1900 µM)
